Converted amounts (≈) assume the structure as drawn.
Legend:
rodent platelets (rat) = experiment: platelet aggregation in vitro, rat platelets; type: cell-based; conditions: agonist Sulprostone (100 nM) and collagen (2.0 ug.mL), Serum % 20
Protocol: (§1) DTSI and related compounds were assayed for their effect on platelet aggregation in vitro. In experiments with human platelets, whole blood was extracted from overnight-fasted human donors. Each experiment was performed with blood from a single individual. In experiments with rodent platelets, whole blood was gathered from the heart of female mice or male rats under isofluran (Abbott) anaesthesia. Blood was pooled from two or ten individual rodents for each experiment in the case of rat and mouse experiments, respectively. In all cases, blood was collected into 3.8% sodium citrate tubes (Greiner Bio-one). Platelet-rich plasma (PRP) was obtained by centrifugation at 100×g for 15 min at 25° C. for humans, at 150×g for rats, or at 80×g for 10 min for mice. Platelet-poor plasma was obtained by centrifugation of the remaining blood at 2,400×g for 10 min at 25° C. After counting in an Autocounter (Model 920 EO, Swelab) platelets were diluted when necessary to the desired stock concentrations (200,000-300,000 platelets/μl) using 0.9% NaCl isotonic solution (Braun).
(§2) Platelet aggregation was determined by light absorbance using a platelet aggregometer with constant magnetic stirring (Model 490, Chronolog Cop., Havertown, Pa., USA), using a volume of 500 μl per cuvette. […] IC50 values were calculated using GraphPad Prism 3.02 for Windows (GraphPad Software, San Diego, Calif. USA). […]

[1] = aqueous solubility of micronized DTSI in surfactant/amine solutions; type: physicochemical; conditions: for solubility at 60 min: thermodynamic from solid, micronized DTSI
Protocol: The solubility of DTSI in aqueous PEG, cyclodextrins, glycerides and other solvent systems was evaluated. Excess amount of the DTSI was added to the aqueous compatible/complexation media, the suspension formed was sonicated for 60 minutes (and also heated up to 75° C. e.g. for cyclodextrins). The suspensions at room temperature were filtered and the amount of dissolved drug was determined by HPLC.

human platelets = experiment: platelet aggregation in vitro, human platelets; type: cell-based; conditions: agonist Sulprostone (100 nM) and collagen (0.125 ug.mL), Serum % 100
Protocol: as §1, §2

[2] = test system: pulmonary thromboembolism by arachidonic acid; experiment: pulmonary thromboembolism assay (platelet aggregation in vivo); conditions: 100 mg/kg orally, 30 min before arachidonic acid 30 mg/kg i.v.; survival one hour after challenge
Protocol: DTSI was also assayed for its effects on platelet aggregation in vivo. […] For the pulmonary thromboembolism assay, conscious female C57BL/6 mice were dosed orally with the test compounds and 30 min later thromboembolism was induced by injection of arachidonic acid into a tail vein at a dose of 30 mg per kg body weight. Survival was evaluated one hour after the challenge with arachidonic acid, as mice that survive for that length of time usually recovered fully. The arachidonic acid injection was given via a lateral tail vein in a mouse that had been warmed briefly under a heat lamp (dilation of the tail veins using heat facilitates placing the injection). An insulin syringe, 0. 5 mL (from Becton Dickinson) was used for dosing. The dose volume given of both the test compound and the arachidonic acid was adjusted to the weight of the mouse (the dose volume p.o. for test compounds and i.v. for arachidonic acid solution was 10 μL and 5 μL per gram body weight, respectively).

[3] = molecular target: T1, prostanoid hEP3 receptors (Homo sapiens, UniProt P43115); experiment: binding on prostanoid hEP3 receptors
T1 sequence (P43115 1-390): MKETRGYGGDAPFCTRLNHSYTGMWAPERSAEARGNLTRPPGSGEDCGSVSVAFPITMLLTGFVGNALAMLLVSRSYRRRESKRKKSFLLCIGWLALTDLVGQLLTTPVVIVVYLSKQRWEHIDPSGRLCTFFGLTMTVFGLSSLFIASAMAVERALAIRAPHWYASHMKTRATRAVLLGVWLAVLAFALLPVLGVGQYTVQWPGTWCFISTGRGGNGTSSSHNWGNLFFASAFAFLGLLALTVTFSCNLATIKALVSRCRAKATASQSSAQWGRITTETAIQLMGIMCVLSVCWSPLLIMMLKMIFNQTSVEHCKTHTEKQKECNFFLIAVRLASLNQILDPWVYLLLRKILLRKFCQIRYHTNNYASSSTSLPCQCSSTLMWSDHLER
Protocol: DTSI and related compounds were assayed for binding on prostanoid hEP3 receptors according to the method of Abramovitz et al [Bioch. Biophys.

## Cc1cn(Cc2ccc(Cl)cc2Cl)c2c(/C=C/C(=O)NS(=O)(=O)c3cc(Cl)c(Cl)s3)cc(F)cc12 [DTSI, 4,5-dichlorothiophene-2-sulfonic acid [(E)-3-[1-(2,4-dichlorophenylmethyl)-5-fluoro-3-methyl-1H-indol-7-yl]-acryloyl]amide]
Rodent platelets (rat)
  IC50: 83 nM
[1]
  aqueous solubility (in words): poor
[1]; aqueous solution of 5% Cremophor RH40, aqueous with cosolvent or surfactant or cyclodextrin, 5% Cremophor RH40
  solubility at 60 min: 170 µg/mL (≈ 0.287 mM)
[1]; aqueous solution of 5% Cremophor RH40 and 1% diethanolamine, aqueous with cosolvent or surfactant or cyclodextrin, 5% Cremophor RH40 and 1% diethanolamine
  solubility at 60 min: 22700 µg/mL (≈ 38.3 mM)
[1]; aqueous solution of 5% Cremophor RH40 and 1% ethanolamine, aqueous with cosolvent or surfactant or cyclodextrin, 5% Cremophor RH40 and 1% ethanolamine
  solubility at 60 min: 8900 µg/mL (≈ 15 mM)
[1]; aqueous solution of 5% Cremophor RH40 and 1% triethanolamine, aqueous with cosolvent or surfactant or cyclodextrin, 5% Cremophor RH40 and 1% triethanolamine
  solubility at 60 min: 8300 µg/mL (≈ 14 mM)
[1]; aqueous solution of 5% Cremophor RH40 and 1% tromethamine, aqueous with cosolvent or surfactant or cyclodextrin, 5% Cremophor RH40 and 1% tromethamine
  solubility at 60 min: 8700 µg/mL (≈ 14.7 mM)
[1]; aqueous solution of 5% Vitamin E TPGS and 1% choline, aqueous with cosolvent or surfactant or cyclodextrin, 5% Vitamin E TPGS and 1% choline
  solubility at 60 min: 46600 µg/mL (≈ 78.7 mM)
[1]; aqueous solution of 5% Vitamin E TPGS and 1% diethanolamine, aqueous with cosolvent or surfactant or cyclodextrin, 5% Vitamin E TPGS and 1% diethanolamine
  solubility at 60 min: 20400 µg/mL (≈ 34.4 mM)
[1]; aqueous solution of 5% Vitamin E TPGS and 1% ethanolamine, aqueous with cosolvent or surfactant or cyclodextrin, 5% Vitamin E TPGS and 1% ethanolamine
  solubility at 60 min: 19200 µg/mL (≈ 32.4 mM)
[1]; aqueous solution of 5% Vitamin E TPGS and 1% triethanolamine, aqueous with cosolvent or surfactant or cyclodextrin, 5% Vitamin E TPGS and 1% triethanolamine
  solubility at 60 min: 9200 µg/mL (≈ 15.5 mM)
[1]; aqueous solution of 5% Vitamin E TPGS and 1% tromethamine, aqueous with cosolvent or surfactant or cyclodextrin, 5% Vitamin E TPGS and 1% tromethamine
  solubility at 60 min: 8500 µg/mL (≈ 14.4 mM)
[1]; aqueous solution of 5% Vitamin E TPGS and 5% diethanolamine, aqueous with cosolvent or surfactant or cyclodextrin, 5% Vitamin E TPGS and 5% diethanolamine
  solubility at 60 min: 58500 µg/mL (≈ 98.8 mM)
[1]; aqueous solution of 5% Vitamin E TPGS, aqueous with cosolvent or surfactant or cyclodextrin, 5% Vitamin E TPGS
  solubility at 60 min: 100 µg/mL (≈ 0.169 mM)
[1]; aqueous with cosolvent or surfactant or cyclodextrin, 5% Vitamin E TPGS and 0.5% diethanolamine
  solubility at 60 min: 15600 µg/mL (≈ 26.3 mM)
Human platelets
  IC50: 218 nM
[2]
  Survival rate: 68%
[3]
  EP3 receptor antagonism (in words): potent, selective EP3 receptor antagonist

Reference: US20080125477A1, “7-(ACRYLOYL) INDOLE COMPOSITIONS AND METHODS OF MAKING AND USING SAME” (DECODE GENETICS, EHF., priority 2006, published 2008)
